Test results reported in US11466034B2, “Compound functioning as bromodomain protein inhibitor, and composition” (Betta Pharmaceuticals Co., Ltd., priority 2017, dated 2022).

Assays:
BRD4(D1) = BRD4(D1) (Homo sapiens (Human), UniProt O60885); assay: Inhibitory activity against BRD4(D1), HTRF assay; format: binding
Description: (§1) (+)-JQ1 was used as comparison compound, to evaluated the inhibitory activity of compounds of the invention against BRD4(D1) and BRD4(D2) in vitro.
(§2) The assays of BRD4 (D1) and BRD4 (D2) were conducted in a 384-well polystyrene plate. The test compounds were first serially diluted in DMSO and the test compound/DMSO were transferred to 384-well plates. The final concentration of DMSO in the assay was 0.1%. 2 volumes of protein/peptide mixture were added into 384-well plates, then 2 volumes of assay mixture were added, and shake for 30 s. The plate was incubated at room temperature for 2 h. Then the HTRF signal on EnVision was readed.
(§3) Use equation (1) to fit the date in Excel to obtain the value of the inhibition rate. Inhibition rate (%)=(maximum value−signal value)/(maximum value−minimum value)*100 Equation(1):
(§4) IC50 determination was performed by fitting the data using GraphPad Prism 5.0 software and equation (2). Y=bottom+(Top−bottom)/(1+10^((Log IC50−X)*HillSlope)); Equation(2): wherein, Y represents the percentage of inhibition (%); X represents the concentration of test compounds.
(§5) The IC50 data of the examples were provided in the following table, wherein, A stands for IC50<100 nM; B stands for IC50 is 100-300 nM; C stands for IC50>300 nM.

BRD4(D2) = BRD4(D2) (Homo sapiens (Human), UniProt O60885); assay: Inhibitory activity against BRD4(D2), HTRF assay; format: binding
Description: as §1, §2, §3, §4, §5

Work on `Cc1[nH]c2ncc(-c3cn(C)c(=O)c4[nH]ccc34)cc2c1C(C)c1c(Cl)ccc(F)c1Cl` (stereo not drawn) [Example 35, 4-(3-(1-(2,6-dichloro-3-fluorophenyl)ethyl)-2-methyl-1H-pyrrolo[2,3-b]pyridin-5-yl)-6-methyl-1,6-dihydro-7H-pyrrolo[2,3-c]pyridin-7-one] yielded an IC50 (BRD4(D1); numeric values) of 45.1 nM and an IC50 (BRD4(D2); numeric values) of 5.3 nM.
Work on `Cn1cc(-c2cnc3ccn(Cc4c(Cl)cccc4Cl)c3c2)c2cc[nH]c2c1=O` [Example 36, 4-(1-(2,6-dichlorobenzyl)-1H-pyrrolo[3,2-b]pyridin-6-yl)-6-methyl-1,6-dihydro-7H-pyrrolo[2,3-c]pyridin-7-one] yielded an IC50 (BRD4(D1); numeric values) of 15 nM and an IC50 (BRD4(D2); numeric values) of 2.9 nM.
`Cn1cc(-c2cnc3ncnc(Nc4ccc(Cl)cc4)c3c2)c2cc[nH]c2c1=O` [Example 37, 4-(4-((4-chlorophenyl)amino)pyrido[2,3-d]pyrimidin-6-yl)-6-methyl-1,6-dihydro-7H-pyrrolo[2,3-c]pyridin-7-one] showed an IC50 (BRD4(D1); class symbols) greater than 300 nM and an IC50 (BRD4(D2); class symbols) greater than 300 nM.
In the case of `Cc1cc2ncc(-c3cn(C)c(=O)c4[nH]ccc34)cc2n1Cc1c(Cl)cccc1Cl` [Example 38, 4-(1-(2,6-dichlorobenzyl)-2-methyl-1H-pyrrolo[3,2-b]pyridin-6-yl)-6-methyl-1,6-dihydro-7H-pyrrolo[2,3-c]pyridin-7-one], the IC50 (BRD4(D1); numeric values) is reported as 7.3 nM and the IC50 (BRD4(D2); numeric values) is reported as 2.2 nM.
With `Cn1cc(-c2ccc3ccn(S(=O)(=O)c4ccc(Cl)cc4)c3n2)c2cc[nH]c2c1=O` [Example 40, 4-(1-((4-chlorophenyl)sulfonyl)-1H-pyrrolo[2,3-b]pyridin-6-yl)-6-methyl-1,6-dihydro-7H-pyrrolo[2,3-c]pyridin-7-one] the IC50 (BRD4(D1); numeric values) was 10.5 nM and the IC50 (BRD4(D2); numeric values) was 2.5 nM.
With `CCS(=O)(=O)Nc1cc(-c2cn(C)c(=O)c3[nH]ccc23)cc2c1nc(C)n2Cc1ccc(C(F)(F)F)cc1` [Example 42, N-(2-methyl-6-(6-methyl-7-oxo-6,7-dihydro-1H-pyrrolo[2,3-c]pyridin-4-yl)-1-(4-(trifluoromethyl)benzyl)-1H-benzo[d]imidazol-4-yl)ethanesulfonamide] the IC50 (BRD4(D1); class symbols) was less than 100 nM and the IC50 (BRD4(D2); class symbols) was less than 100 nM.
`CCS(=O)(=O)Nc1cc(-c2cn(C)c(=O)c3[nH]ccc23)cc2c1nc(C)n2Cc1ccc(OC)cc1` [Example 43, N-(1-(4-methoxybenzyl)-2-methyl-6-(6-methyl-7-oxo-6,7-dihydro-H-pyrrolo[2,3-c]pyridin-4-yl)-1H-benzo[d]imidazol-4-yl)ethanesulfonamide] showed an IC50 (BRD4(D1); class symbols) of less than 100 nM and an IC50 (BRD4(D2); class symbols) of less than 100 nM.
`CCS(=O)(=O)Nc1cc(-c2cn(C)c(=O)c3[nH]ccc23)cc2c1nc(C)n2C(C)c1ccc(Cl)cc1` (stereo not drawn) [Example 44, N-(1-(1-(4-chlorophenyl)ethyl)-2-methyl-6-(6-methyl-7-oxo-6,7-dihydro-H-pyrrolo[2,3-c]pyridin-4-yl)-1H-benzo[d]imidazol-4-yl)ethanesulfonamide] gave an IC50 (BRD4(D1); class symbols) of less than 100 nM and an IC50 (BRD4(D2); class symbols) of less than 100 nM.
With `CCS(=O)(=O)Nc1cc(-c2cn(C)c(=O)c3[nH]ccc23)cc2c1nc(C)n2Cc1ccccc1` [Example 45, N-(1-benzyl-2-methyl-6-(6-methyl-7-oxo-6,7-dihydro-1H-pyrrolo[2,3-c]pyridin-4-yl)-1H-benzo[d]imidazol-4-yl)ethanesulfonamide] the IC50 (BRD4(D1); class symbols) was less than 100 nM and the IC50 (BRD4(D2); class symbols) was less than 100 nM.
`CCS(=O)(=O)Nc1cc(-c2cn(C)c(=O)c3[nH]ccc23)cc2c1nc(C)n2Cc1cccc(C(F)(F)F)c1` [Example 46, N-(2-methyl-6-(6-methyl-7-oxo-6,7-dihydro-1H-pyrrolo[2,3-c]pyridin-4-yl)-1-(3-(trifluoromethyl)benzyl)-1H-benzo[d]imidazol-4-yl)ethanesulfonamide] gave an IC50 (BRD4(D1); class symbols) of less than 100 nM and an IC50 (BRD4(D2); class symbols) of less than 100 nM.
In the case of `CCS(=O)(=O)Nc1cc(-c2cn(C)c(=O)c3[nH]ccc23)cc2c1nc(C)n2Cc1cc(C(F)(F)F)ccc1F` [Example 47, N-(2-methyl-6-(6-methyl-7-oxo-6,7-dihydro-1H-pyrrolo[2,3-c]pyridin-4-yl)-1-(2-fluoro-5-(trifluoromethyl)benzyl)-1H-benzo[d]imidazol-4-yl)ethanesulfonamide], the IC50 (BRD4(D1); class symbols) is reported as less than 100 nM and the IC50 (BRD4(D2); class symbols) is reported as less than 100 nM.
Compound `CCS(=O)(=O)Nc1cc(-c2cn(C)c(=O)c3[nH]ccc23)cc2c1nc(C)n2Cc1cc(F)cc(C(F)(F)F)c1` [Example 48, N-(2-methyl-6-(6-methyl-7-oxo-6,7-dihydro-1H-pyrrolo[2,3-c]pyridin-4-yl)-1-(3-fluoro-5-(trifluoromethyl)benzyl)-1H-benzo[d]imidazol-4-yl)ethanesulfonamide] has an IC50 (BRD4(D1); class symbols) of less than 100 nM and an IC50 (BRD4(D2); class symbols) of less than 100 nM.
With `CCS(=O)(=O)Nc1cc(-c2cn(C)c(=O)c3[nH]ccc23)cc2c1nc(C)n2Cc1ccc(Cl)cc1F` [Example 49, N-(2-methyl-6-(6-methyl-7-oxo-6,7-dihydro-1H-pyrrolo[2,3-c]pyridin-4-yl)-1-(2-fluoro-4-chlorobenzyl)-1H-benzo[d]imidazol-4-yl)ethanesulfonamide] the IC50 (BRD4(D1); class symbols) was less than 100 nM and the IC50 (BRD4(D2); class symbols) was less than 100 nM.
`CCS(=O)(=O)Nc1cc(-c2cn(C)c(=O)c3[nH]ccc23)cc2c1nc(C)n2Cc1ccc(Cl)c(C(F)(F)F)c1` [Example 50, N-(2-methyl-6-(6-methyl-7-oxo-6,7-dihydro-1H-pyrrolo[2,3-c]pyridin-4-yl)-1-(3-(trifluoromethyl)-4chlorobenzyl)-1H-benzo[d]imidazol-4-yl)ethanesulfonamide] was tested, and the IC50 (BRD4(D1); class symbols) was less than 100 nM and the IC50 (BRD4(D2); class symbols) was less than 100 nM.
Compound `CCS(=O)(=O)Nc1cc(-c2cn(C)c(=O)c3[nH]ccc23)cc2c1nc(C)n2Cc1ccc(C(F)(F)F)c(F)c1` [Example 51, N-(2-methyl-6-(6-methyl-7-oxo-6,7-dihydro-1H-pyrrolo[2,3-c]pyridin-4-yl)-1-(3-fluoro-4-(trifluoromethyl)benzyl)-1H-benzo[d]imidazol-4-yl)ethanesulfonamide] has an IC50 (BRD4(D1); class symbols) of less than 100 nM and an IC50 (BRD4(D2); class symbols) of less than 100 nM.
`CCS(=O)(=O)Nc1cc(-c2cn(C)c(=O)c3[nH]ccc23)cc2c1nc(C)n2Cc1ccc(C(F)(F)F)c(Cl)c1` [Example 52, N-(2-methyl-6-(6-methyl-7-oxo-6,7-dihydro-1H-pyrrolo[2,3-c]pyridin-4-yl)-1-(3-chloro-4-(trifluoromethyl)benzyl)-1H-benzo[d]imidazol-4-yl)ethanesulfonamide] gave an IC50 (BRD4(D1); class symbols) of less than 100 nM and an IC50 (BRD4(D2); class symbols) of less than 100 nM.
For `CCS(=O)(=O)Nc1cc(-c2cn(C)c(=O)c3[nH]ccc23)cc2c1nc(C)n2Cc1cccc(Cl)c1` [Example 53, N-(2-methyl-6-(6-methyl-7-oxo-6,7-dihydro-1H-pyrrolo[2,3-c]pyridin-4-yl)-1-(3-chlorobenzyl)-1H-benzo[d]imidazol-4-yl)ethanesulfonamide], the IC50 (BRD4(D1); class symbols) was less than 100 nM and the IC50 (BRD4(D2); class symbols) was less than 100 nM.
`CCS(=O)(=O)Nc1cc(-c2cn(C)c(=O)c3[nH]ccc23)cc2c1nc(C)n2Cc1ccc(Br)cc1` [Example 55, N-(2-methyl-6-(6-methyl-7-oxo-6,7-dihydro-1H-pyrrolo[2,3-c]pyridin-4-yl)-1-(4-bromobenzyl)-1H-benzo[d]imidazol-4-yl)ethanesulfonamide] showed an IC50 (BRD4(D1); class symbols) of less than 100 nM and an IC50 (BRD4(D2); class symbols) of less than 100 nM.
`CCS(=O)(=O)Nc1cc(-c2cn(C)c(=O)c3[nH]ccc23)cc2c1nc(C)n2Cc1ccc(S(C)(=O)=O)cc1` [Example 56, N-(2-methyl-6-(6-methyl-7-oxo-6,7-dihydro-1H-pyrrolo[2,3-c]pyridin-4-yl)-1-(4-(methylsulfonyl)benzyl)-1H-benzo[d]imidazol-4-yl)ethanesulfonamide] was tested, and the IC50 (BRD4(D1); class symbols) was less than 100 nM and the IC50 (BRD4(D2); class symbols) was less than 100 nM.
`CCS(=O)(=O)Nc1cc(-c2cn(C)c(=O)c3[nH]ccc23)cc2c1nc(C)n2Cc1ccc(F)cc1Cl` [Example 57, N-(1-(2-chloro-4-fluorobenzyl)-2-methyl-6-(6-methyl-7-oxo-6,7-dihydro-1H-pyrrolo[2,3-c]pyridin-4-yl)-1H-benzo[d]imidazol-4-yl)ethanesulfonamide] gave an IC50 (BRD4(D1); class symbols) of less than 100 nM and an IC50 (BRD4(D2); class symbols) of less than 100 nM.
Work on `CCS(=O)(=O)Nc1cc(-c2cn(C)c(=O)c3[nH]ccc23)nc2c1ncn2C(C)c1ccc(Cl)cc1` (stereo not drawn) [Example 60, N-(3-(1-(4-chlorophenyl)ethyl)-5-(6-methyl-7-oxo-6,7-dihydro-1H-pyrrolo[2,3-c]pyridin-4-yl)-3H-imidazo[4,5-b]pyridin-7-yl)ethanesulfonamide] yielded an IC50 (BRD4(D1); class symbols) of 100 to 300 nM and an IC50 (BRD4(D2); class symbols) of 100 to 300 nM.
Work on `CCS(=O)(=O)Nc1cc(-c2cn(C)c(=O)c3[nH]ccc23)nc2c1ncn2Cc1cc(C(F)(F)F)ccc1F` [Example 61, N-(3-(2-fluoro-5-(trifluoromethyl)benzyl)-5-(6-methyl-7-oxo-6,7-dihydro-H-pyrrolo[2,3-c]pyridin-4-yl)-3H-imidazo[4,5-b]pyridin-7-yl)ethanesulfonamide] yielded an IC50 (BRD4(D1); class symbols) of less than 100 nM and an IC50 (BRD4(D2); class symbols) of less than 100 nM.
`CCS(=O)(=O)Nc1cc(-c2cn(C)c(=O)c3[nH]ccc23)nc2c1ncn2Cc1cc(F)cc(F)c1` [Example 62, N-(3-(3,5-difluorobenzyl)-5-(6-methyl-7-oxo-6,7-dihydro-H-pyrrolo[2,3-c]pyridin-4-yl)-3H-imidazo[4,5-b]pyridin-7-yl)ethanesulfonamide] was tested, and the IC50 (BRD4(D1); numeric values) was 1.3 nM and the IC50 (BRD4(D2); numeric values) was 1.2 nM.
`CCS(=O)(=O)Nc1cc(-c2cn(C)c(=O)c3[nH]ccc23)nc2c1ncn2Cc1ccccc1C(F)(F)F` [Example 63, N-(5-(6-methyl-7-oxo-6,7-dihydro-H-pyrrolo[2,3-c]pyridin-4-yl)-3-(2-(trifluoromethyl)benzyl)-3H-imidazo[4,5-b]pyridin-7-yl)ethanesulfonamide] was tested, and the IC50 (BRD4(D1); class symbols) was less than 100 nM and the IC50 (BRD4(D2); class symbols) was less than 100 nM.
